What was measured:
[1] = test system: A549-ACE2 infected with SARS-CoV-2; assay: morphology score (similarity to uninfected cells); higher = more like uninfected cells; settings: 24 h
HepG2 [2] = assay: drug sensitivity score (DSS) for viability; higher = more toxic; extreme values may be limits of the assay; settings: 72 h
Calu-3 [3] = assay: as above; settings: 72 h
U2OS [4] = assay: as above; settings: 72 h
Caco-2 [5] = assay: as above; settings: 72 h
Vero E6 [6] = assay: as above; settings: 72 h
A549-ACE2 [7] = assay: phospholipidosis EC50; higher = less potent phospholipidosis inducer
HepG2 [8] = assay: relative viability EC50 (midpoint between 100% and the lowest measured viability); higher = less toxic; settings: 72 h
U2OS [9] = assay: as above; settings: 72 h
[10] = test system: A549-ACE2 infected with SARS-CoV-2; assay: cell count relative to DMSO; higher = less toxic; settings: 24 h
HepG2 [11] = assay: cell viability relative to DMSO; higher = less toxic; settings: 72 h
Calu-3 [12] = assay: as above; settings: 72 h
U2OS [13] = assay: as above; settings: 72 h
Caco-2 [14] = assay: as above; settings: 72 h
Vero E6 [15] = assay: as above; settings: 72 h
A549-ACE2 [16] = assay: drug-induced phospholipidosis relative to tamoxifen; higher = more phospholipidosis
[17] = test system: A549-ACE2 infected with SARS-CoV-2; assay: SARS-CoV-2 infection rate relative to DMSO; higher = more infection; settings: 24 h
Calu-3 [18] = assay: relative viability EC50 (midpoint between 100% and the lowest measured viability); higher = less toxic; settings: 72 h
Caco-2 [19] = assay: as above; settings: 72 h
Vero E6 [20] = assay: as above; settings: 72 h

CCN(CC)CCNC(=O)c1c(C)[nH]c(/C=C2\C(=O)Nc3ccc(F)cc32)c1C [sunitinib]
Settings | morphology score, 0.1 µM | morphology score, 0.3 µM | morphology score, 1 µM | morphology score, 3 µM | phospholipidosis EC50, 24 h [µM] | phospholipidosis EC50, 48 h [µM] | phospholipidosis EC50, 72 h [µM]
A549-ACE2 [7] | – | – | – | – | 4.75 | 4.77 | 3.32
[1] | 0.28 | 0.35 | 0.53 | 0.51 | – | – | –

Settings | drug sensitivity score
Caco-2 [5] | 5.7
Calu-3 [3] | 0.1
HepG2 [2] | 9
U2OS [4] | 4
Vero E6 [6] | 4.1

CC(C)(C)Cn1c(N)nc2ccc(-c3[nH]c(C(C)(C)C)nc3-c3ccc(F)cc3)nc21
Settings | drug sensitivity score | relative viability EC50 [µM]
Caco-2 [5] | 2.9 | –
Calu-3 [3] | 6.1 | –
HepG2 [2] | 0.6 | –
HepG2 [8] | – | > 10
U2OS [4] | 1.2 | –
U2OS [9] | – | > 10
Vero E6 [6] | 6.7 | –

Settings | SARS-CoV-2 infection rate, [17] [%] | cell count, [10] [%] | cell viability, Caco-2 [14] [%] | cell viability, Calu-3 [12] [%] | cell viability, HepG2 [11] [%] | cell viability, U2OS [13] [%] | cell viability, Vero E6 [15] [%] | morphology score, [1]
1 nM | – | – | 102 | 107 | 97 | 99 | 93.2 | –
10 nM | – | – | 98.1 | 94.6 | 92.8 | 98.4 | 94.5 | –
100 nM | – | – | 89.6 | 85.5 | 100 | 95.2 | 83.6 | –
0.3 µM | 118 | 87 | – | – | – | – | – | -0.39
1000 nM | – | – | 86.6 | 75.3 | 94.9 | 91.7 | 72.4 | –
3 µM | 8 | 129 | – | – | – | – | – | 0.95
10 µM | 4 | 124 | – | – | – | – | – | 0.96
10000 nM | – | – | 68 | 54.1 | 85.3 | 77.4 | 58.7 | –
30 µM | 8 | 100 | – | – | – | – | – | 0.66

drug-induced phospholipidosis [%], A549-ACE2 [16]
Settings | 0.3 µM | 0.833333 µM | 3.33333 µM | 6.66667 µM | 10 µM | 30 µM
24 h | -0.05 | -0.99 | 3.52 | 13.5 | 24.9 | 60.6
48 h | 1.57 | 1.82 | 5.06 | 15.9 | 25.2 | 57.1
72 h | 2.63 | 3.92 | 4.98 | 13.2 | 27 | –

C=C1C(=O)O[C@@H]2/C=C(\C)CC/C=C(\C)CC[C@@H]12 [costunolide]
Settings | drug sensitivity score | relative viability EC50 [µM]
Caco-2 [5] | 0.9 | –
Caco-2 [19] | – | > 10
Calu-3 [3] | 0 | –
Calu-3 [18] | – | > 10
HepG2 [2] | 0 | –
HepG2 [8] | – | > 10
U2OS [4] | 0 | –
U2OS [9] | – | > 10
Vero E6 [6] | 0 | –
Vero E6 [20] | – | > 10

Settings | SARS-CoV-2 infection rate, [17] [%] | cell count, [10] [%] | cell viability, Caco-2 [14] [%] | cell viability, Calu-3 [12] [%] | cell viability, HepG2 [11] [%] | cell viability, U2OS [13] [%] | cell viability, Vero E6 [15] [%] | morphology score, [1]
1 nM | – | – | 96.5 | 117 | 99.7 | 96.3 | 98.6 | –
10 nM | – | – | 92.8 | 102 | 108 | 99.8 | 91.9 | –
100 nM | – | – | 91.1 | 98.7 | 92.9 | 94.3 | 99.1 | –
0.3 µM | 103 | 104 | – | – | – | – | – | 0.19
1000 nM | – | – | 86.6 | 94.5 | 97.3 | 96.8 | 97.8 | –
3 µM | 104 | 97 | – | – | – | – | – | -0.19
10 µM | 106 | 99 | – | – | – | – | – | -0.21
10000 nM | – | – | 87.1 | 105 | 91.5 | 94.7 | 93.4 | –
30 µM | 66 | 70 | – | – | – | – | – | 0.15

drug-induced phospholipidosis [%], A549-ACE2 [16]
Settings | 0.3 µM | 0.833333 µM | 3.33333 µM | 6.66667 µM | 10 µM | 30 µM
24 h | 0.39 | -3.23 | 0.77 | 4.32 | 10.4 | 39.6
48 h | 2.36 | -2.51 | 0.025 | 1.2 | 4.57 | 14.4
72 h | 2.1 | -1.84 | -1.2 | -0.442 | 1.25 | 9.89

FC(F)(F)c1ccc(CNc2ccc(Cc3c[nH]c4ncc(Cl)cc34)cn2)cn1 [pexidartinib]
Settings | drug sensitivity score | relative viability EC50 [µM]
Caco-2 [5] | 0 | –
Caco-2 [19] | – | > 10
Calu-3 [3] | 0 | –
Calu-3 [18] | – | > 10
HepG2 [2] | 1.2 | –
HepG2 [8] | – | > 10
U2OS [4] | 0 | –
U2OS [9] | – | > 10
Vero E6 [6] | 0 | –
Vero E6 [20] | – | > 10

Settings | SARS-CoV-2 infection rate, [17] [%] | cell count, [10] [%] | cell viability, Caco-2 [14] [%] | cell viability, Calu-3 [12] [%] | cell viability, HepG2 [11] [%] | cell viability, U2OS [13] [%] | cell viability, Vero E6 [15] [%] | morphology score, [1]
1 nM | – | – | 81.7 | 108 | 107 | 94.2 | 99.7 | –
10 nM | – | – | 95.7 | 108 | 92.2 | 100 | 96.4 | –
100 nM | – | – | 98.2 | 97.6 | 105 | 97.9 | 103 | –
0.3 µM | 104 | 95 | – | – | – | – | – | -0.17
1000 nM | – | – | 94.6 | 102 | 94.5 | 102 | 95.3 | –
3 µM | 102 | 101 | – | – | – | – | – | 0.07
10 µM | 103 | 101 | – | – | – | – | – | 0.25
10000 nM | – | – | 94.5 | 90 | 80.7 | 96.8 | 113 | –
30 µM | 67 | 92 | – | – | – | – | – | 0.46

drug-induced phospholipidosis [%], A549-ACE2 [16]
Settings | 0.3 µM | 0.833333 µM | 3.33333 µM | 6.66667 µM | 10 µM | 30 µM
24 h | 1.33 | -1.52 | 1.3 | 5.68 | 7.59 | 11.6
48 h | 2.9 | -0.74 | 2.56 | 7.51 | 9.31 | 14.4
72 h | 4.54 | -1.68 | 3.26 | 9.4 | 15.6 | 20.7
